Experimental findings from PubChem BioAssay AID256 (DTP/NCI, 2004) are described below.

“And” between values parts separate entries of the source, which are not always exact repeats. Identical values can stand only once. Inconclusive results and toxic doses are left out.

The test system of this experiment is CD2F1 mice, L1210 leukemia ip, survival T/C. Nature of the experiment: NCI In Vivo Anticancer Drug Screen. Data for tumor model L1210 Leukemia (intraperitoneal) in CD2F1 (CDF1) mice. The following applies: higher = longer survival. The procedure, abridged:
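Ratio T/C, where T is the treated-group value and C the vehicle-dosed control value, from mice implanted with a transplantable tumor.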

[1] abbreviates: endpoint: mean survival time, dose: 100.0 mg/kg/injection, schedule: Q01DX009 (ip), vehicle: saline with Tween-80.
The mark [2] stands for this setting: endpoint: mean survival time, dose: 200.0 mg/kg/injection, schedule: Q01DX009 (ip), vehicle: saline with Tween-80.
Where [3] appears, read: endpoint: mean survival time, dose: 400.0 mg/kg/injection, schedule: Q01DX009 (ip), vehicle: saline with Tween-80.
Where [4] appears, read: endpoint: mean survival time, dose: 100.0 mg/kg/injection, schedule: Q04DX003 (ip), vehicle: saline with Tween-80.
Setting [5] is: endpoint: mean survival time, dose: 200.0 mg/kg/injection, schedule: Q04DX003 (ip), vehicle: saline with Tween-80.
Setting [6] is: endpoint: mean survival time, dose: 400.0 mg/kg/injection, schedule: Q04DX003 (ip), vehicle: saline with Tween-80.
[7] abbreviates: endpoint: mean survival time, dose: 100.0 mg/kg/injection, schedule: Q01DX001 (ip), vehicle: saline with Tween-80.
The mark [8] stands for this setting: endpoint: mean survival time, dose: 200.0 mg/kg/injection, schedule: Q01DX001 (ip), vehicle: saline with Tween-80.
Setting [9] is: endpoint: mean survival time, dose: 400.0 mg/kg/injection, schedule: Q01DX001 (ip), vehicle: saline with Tween-80.
[10] abbreviates: endpoint: mean survival time, dose: 50.0 mg/kg/injection, schedule: Q01DX009 (ip), vehicle: saline with Tween-80.
The mark [11] stands for this setting: endpoint: mean survival time, dose: 200.0 mg/kg/injection, schedule: Q04DX003 (ip), vehicle: Klucel (hydroxypropylcellulose) (HPC).

On to `COC(=O)c1ccccc1NC1OC(CO)C(O)C1O` (centres undefined), for which the T/C is 101 % of control (endpoint: mean survival time, dose: 100.0 mg/kg/injection, schedule: Q01DX001 (ip), vehicle: saline); 92 % of control (endpoint: mean survival time, dose: 200.0 mg/kg/injection, schedule: Q01DX001 (ip), vehicle: saline); 91 % of control (endpoint: mean survival time, dose: 400.0 mg/kg/injection, schedule: Q01DX001 (ip), vehicle: saline).

In the case of `NC(=O)c1ncn(C2OC(CO)C(O)C2O)n1` (centres undefined), the T/C is 124 % of control under setting [1]; 100 % of control (endpoint: mean survival time, dose: 100.0 mg/kg/injection, schedule: Q04DX003 (ip), vehicle: saline); 110 % of control under setting [2]; 115 % of control (endpoint: mean survival time, dose: 200.0 mg/kg/injection, schedule: Q04DX003 (ip), vehicle: saline); 93 % of control under setting [3]; 110 % of control (endpoint: mean survival time, dose: 400.0 mg/kg/injection, schedule: Q04DX003 (ip), vehicle: saline).

Turning to `CNC(=O)Oc1cccc(NC(=O)OCc2ccccc2)c1`, the T/C is, setting by setting: under setting [4], 99 % of control; under setting [5], 96 % of control; under setting [6], 92 % of control.

Take `Nc1c[n+]([O-])cc2ccccc12`: the T/C was 94 % of control under setting [4] and 94 % of control under setting [5].

As to `Nc1nc(=S)n(C2OCC(O)C(O)C2O)c2ccccc12` (centres undefined), the T/C is 97 % of control (endpoint: mean survival time, dose: 12.5 mg/kg/injection, schedule: Q01DX005 (ip), vehicle: distilled water + Tween-80); 96 % of control (endpoint: mean survival time, dose: 25.0 mg/kg/injection, schedule: Q01DX005 (ip), vehicle: distilled water + Tween-80); 96 % of control (endpoint: mean survival time, dose: 50.0 mg/kg/injection, schedule: Q01DX005 (ip), vehicle: distilled water + Tween-80); 96 % of control (endpoint: mean survival time, dose: 100.0 mg/kg/injection, schedule: Q01DX005 (ip), vehicle: distilled water + Tween-80); 91 % of control (endpoint: mean survival time, dose: 200.0 mg/kg/injection, schedule: Q01DX005 (ip), vehicle: distilled water + Tween-80).

As for `COc1cc(C=Nc2cccc3ccccc23)cc(OC)c1OC`, the T/C reads like this: under setting [7], 98 % of control; under setting [1], 88 % of control and 93 % of control; (endpoint: mean survival time, dose: 100.0 mg/kg/injection, schedule: Q04DX002 (ip), vehicle: saline with Tween-80) 89 % of control and 100 % of control; under setting [4], 103 % of control; under setting [8], 95 % of control; under setting [2], 91 % of control and 96 % of control. In addition, the T/C (endpoint: mean survival time, dose: 200.0 mg/kg/injection, schedule: Q04DX002 (ip), vehicle: saline with Tween-80) was 89 % of control and 96 % of control; the T/C under setting [5] was 96 % of control; the T/C under setting [9] is 88 % of control; the T/C under setting [3] was 92 % of control and 95 % of control; the T/C (endpoint: mean survival time, dose: 400.0 mg/kg/injection, schedule: Q04DX002 (ip), vehicle: saline with Tween-80) was 96 % of control and 100 % of control; the T/C under setting [6] is 92 % of control.

Turning to `CCOCCC#N`, the T/C is 102 % of control (endpoint: mean survival time, dose: 50.0 mg/kg/injection, schedule: Q01DX009 (ip), vehicle: Klucel (hydroxypropylcellulose) (HPC)); 102 % of control (endpoint: mean survival time, dose: 100.0 mg/kg/injection, schedule: Q01DX009 (ip), vehicle: Klucel (hydroxypropylcellulose) (HPC)); 102 % of control (endpoint: mean survival time, dose: 200.0 mg/kg/injection, schedule: Q01DX009 (ip), vehicle: Klucel (hydroxypropylcellulose) (HPC)).

Turning to `CN(C)Cc1cc(C(C)(C)C)cc(CN(C)C)c1O`, the T/C was 98 % of control (endpoint: mean survival time, dose: 2.5 mg/kg/injection, schedule: Q01DX009 (ip), vehicle: saline with Tween-80); 96 % of control (endpoint: mean survival time, dose: 5.0 mg/kg/injection, schedule: Q01DX009 (ip), vehicle: saline with Tween-80); 95 % of control and 100 % of control (endpoint: mean survival time, dose: 10.0 mg/kg/injection, schedule: Q01DX009 (ip), vehicle: saline with Tween-80).

With `CN(N)c1cccc2c1CCCC2`, the T/C is 106 % of control (endpoint: mean survival time, dose: 25.0 mg/kg/injection, schedule: Q01DX009 (ip), vehicle: saline with Tween-80); 97 % of control (endpoint: mean survival time, dose: 25.0 mg/kg/injection, schedule: Q04DX003 (ip), vehicle: saline with Tween-80); 103 % of control under setting [10]; 102 % of control (endpoint: mean survival time, dose: 50.0 mg/kg/injection, schedule: Q04DX003 (ip), vehicle: saline with Tween-80); 105 % of control under setting [1]; 93 % of control and 102 % of control under setting [4].

For `CCCCNC(C)(C)C(SS)c1ccc(C(F)(F)F)cc1` (centres undefined), the T/C (endpoint: mean survival time, dose: 100.0 mg/kg/injection, schedule: Q04DX003 (ip), vehicle: other) was 94 % of control and the T/C (endpoint: mean survival time, dose: 400.0 mg/kg/injection, schedule: Q04DX003 (ip), vehicle: other) was 86 % of control.

Regarding `N=C(N)c1ccc(Nc2ccc(-c3cc4ccc(C(=N)N)cc4[nH]3)cc2)cc1`, the T/C runs as follows: (endpoint: median survival time, dose: 3.75 mg/kg/injection, schedule: Q01DX005 (ip), vehicle: saline) 326 % of control; (endpoint: median survival time, dose: 4.5 mg/kg/injection, schedule: Q01DX005 (ip), vehicle: saline) 168 % of control; (endpoint: median survival time, dose: 7.5 mg/kg/injection, schedule: Q01DX005 (ip), vehicle: saline) 182 % of control and 271 % of control; (endpoint: median survival time, dose: 12.49 mg/kg/injection, schedule: Q01DX005 (ip), vehicle: saline) 150 % of control; (endpoint: median survival time, dose: 20.83 mg/kg/injection, schedule: Q01DX005 (ip), vehicle: saline) 101 % of control.

For `C/C(=C/c1ccccc1)C(O)C(=O)O` (centres undefined), the T/C is 100 % of control (endpoint: mean survival time, dose: 50.0 mg/kg/injection, schedule: Q04DX003 (ip), vehicle: Klucel (hydroxypropylcellulose) (HPC)) and 100 % of control under setting [11].

For the molecule `COc1cc(OC)c(NC(=O)NC(C)C)cc1Cl`, the T/C under setting [1] is 100 % of control, the T/C under setting [2] was 96 % of control and the T/C under setting [3] was 100 % of control.

As for `O=C(O)/C=C/c1ccc([N+](=O)[O-])o1`, the T/C by setting is: (endpoint: mean survival time, dose: 25.0 mg/kg/injection, schedule: Q01DX001 (ip), vehicle: saline with Tween-80) 96 % of control; (endpoint: mean survival time, dose: 50.0 mg/kg/injection, schedule: Q01DX001 (ip), vehicle: saline with Tween-80) 89 % of control; under setting [7], 115 % of control and 98 % of control; under setting [8], 94 % of control.

As for `Cc1ccc(C2(C(=O)O)CC2)cc1`, the T/C by setting is: under setting [4], 98 % of control; under setting [5], 98 % of control; under setting [6], 96 % of control.

For `NCCCNCCCCNCCCN`, the T/C (endpoint: median survival time, dose: 24.75 mg/kg/injection, schedule: Q04DX003 (ip), vehicle: saline) is 101 % of control and the T/C (endpoint: median survival time, dose: 49.5 mg/kg/injection, schedule: Q04DX003 (ip), vehicle: saline) was 107 % of control.

Take `CN(C)S(=O)(=O)C1(c2ccccc2)CCCC1`: the T/C is, setting by setting: under setting [4], 102 % of control; under setting [5], 105 % of control; under setting [6], 100 % of control.

`CCOC(=O)c1cc(C=O)nc2c(Cl)cc(Cl)cc12`: the T/C by setting is: under setting [4], 96 % of control; under setting [6], 98 % of control.

Consider `CN(C)/C=N\c1ncnc2c1cnn2C1OC(CO)C(O)C1O` (centres undefined), for which the T/C is 96 % of control (endpoint: mean survival time, dose: 3.13 mg/kg/injection, schedule: Q01DX005 (ip), vehicle: water); 102 % of control (endpoint: mean survival time, dose: 6.25 mg/kg/injection, schedule: Q01DX005 (ip), vehicle: water); 110 % of control (endpoint: mean survival time, dose: 12.5 mg/kg/injection, schedule: Q01DX005 (ip), vehicle: water); 98 % of control and 107 % of control (endpoint: mean survival time, dose: 25.0 mg/kg/injection, schedule: Q01DX005 (ip), vehicle: water); 113 % of control and 110 % of control (endpoint: mean survival time, dose: 50.0 mg/kg/injection, schedule: Q01DX005 (ip), vehicle: water).

Regarding `O=C(C(=C(c1ccccc1)c1ccccc1)N1CCCCC1)c1ccccc1`, the T/C by setting is: (endpoint: mean survival time, dose: 100.0 mg/kg/injection, schedule: Q04DX003 (ip), vehicle: Klucel (hydroxypropylcellulose) (HPC)) 94 % of control; under setting [11], 96 % of control; (endpoint: mean survival time, dose: 400.0 mg/kg/injection, schedule: Q04DX003 (ip), vehicle: Klucel (hydroxypropylcellulose) (HPC)) 94 % of control.

`O=C(c1cccnc1)c1cc2ccccc2n1S(=O)(=O)c1ccccc1`: the T/C was 97 % of control under setting [7], 97 % of control under setting [8] and 97 % of control under setting [9].

Regarding `CCOC(=O)Cc1cnc(SC)nc1Nc1ccc(Br)cc1`, the T/C reads like this: under setting [7], 89 % of control; under setting [8], 89 % of control; under setting [9], 100 % of control.

As to `COc1ccc(C2(C(=O)O)CC(C)=C(C)CC2C(=O)O)cc1` (centres undefined), the T/C reads like this: under setting [10], 88 % of control; under setting [1], 93 % of control; under setting [4], 97 % of control; under setting [5], 95 % of control.

Consider `CCCCOP(=O)(OCCCC)OC(=C(Cl)Cl)P(=O)(OCCCC)OCCCC`, for which the T/C runs as follows: (endpoint: mean survival time, dose: 100.0 mg/kg/injection, schedule: Q04DX002 (ip), vehicle: saline) 89 % of control; (endpoint: mean survival time, dose: 200.0 mg/kg/injection, schedule: Q04DX002 (ip), vehicle: saline) 92 % of control.
